The values that follow come from ChEMBL document CHEMBL1909046, “DrugMatrix in vitro pharmacology data”.

Chain of Prostaglandin G/H synthase 1 (P23219 whole entry): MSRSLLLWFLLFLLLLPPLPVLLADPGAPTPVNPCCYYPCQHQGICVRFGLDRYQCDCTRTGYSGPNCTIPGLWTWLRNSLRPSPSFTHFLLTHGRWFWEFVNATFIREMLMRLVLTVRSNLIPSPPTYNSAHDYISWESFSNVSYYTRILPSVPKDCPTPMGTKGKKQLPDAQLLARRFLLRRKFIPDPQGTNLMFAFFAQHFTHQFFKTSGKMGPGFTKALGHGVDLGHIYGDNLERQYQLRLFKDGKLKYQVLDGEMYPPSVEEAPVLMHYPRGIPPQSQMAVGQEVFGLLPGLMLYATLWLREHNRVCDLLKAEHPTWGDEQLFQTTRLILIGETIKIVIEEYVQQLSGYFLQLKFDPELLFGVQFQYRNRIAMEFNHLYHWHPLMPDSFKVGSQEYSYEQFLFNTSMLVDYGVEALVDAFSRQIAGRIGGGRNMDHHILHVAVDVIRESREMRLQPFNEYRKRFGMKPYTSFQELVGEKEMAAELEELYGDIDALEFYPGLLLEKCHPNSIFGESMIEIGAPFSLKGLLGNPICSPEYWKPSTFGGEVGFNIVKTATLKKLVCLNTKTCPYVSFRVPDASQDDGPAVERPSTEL
Chain of Mitogen-activated protein kinase 1 (P28482 whole entry): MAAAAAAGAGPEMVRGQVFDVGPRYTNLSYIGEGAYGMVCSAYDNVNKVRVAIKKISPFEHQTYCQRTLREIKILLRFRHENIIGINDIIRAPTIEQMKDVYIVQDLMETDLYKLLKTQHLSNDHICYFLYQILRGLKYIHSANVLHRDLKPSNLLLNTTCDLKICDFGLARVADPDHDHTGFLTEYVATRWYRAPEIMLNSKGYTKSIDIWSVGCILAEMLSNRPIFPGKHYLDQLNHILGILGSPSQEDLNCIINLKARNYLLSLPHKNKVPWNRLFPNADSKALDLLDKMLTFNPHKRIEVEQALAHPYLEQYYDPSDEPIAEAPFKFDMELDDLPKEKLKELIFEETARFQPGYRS

In the first experiment the target is T1, Adenosine receptor A1 (Homo sapiens, UniProt P30542).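 Note: radioligand binding assay at the adenosine A1 receptor, with DPCPX serving as the labelled ligand; in other assays of this panel Not Active means under 50% inhibition at 10 µM.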
T1 sequence (P30542 whole entry): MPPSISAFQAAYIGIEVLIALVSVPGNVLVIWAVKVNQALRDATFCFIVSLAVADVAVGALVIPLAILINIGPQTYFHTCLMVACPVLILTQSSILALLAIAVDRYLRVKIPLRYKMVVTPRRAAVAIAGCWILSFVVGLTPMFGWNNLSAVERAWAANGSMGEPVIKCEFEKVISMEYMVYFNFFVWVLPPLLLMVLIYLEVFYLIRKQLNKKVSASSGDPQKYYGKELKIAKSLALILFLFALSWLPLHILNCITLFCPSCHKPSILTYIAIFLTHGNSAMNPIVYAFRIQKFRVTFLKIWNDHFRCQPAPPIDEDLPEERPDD
Assay: not given
The class given is cell membranes, CHO, Membrane. Conditions: cho.
With `CC1(C)S[C@@H]2[C@H](NC(=O)[C@H](N)c3ccc(O)cc3)C(=O)N2[C@H]1C(=O)O` [AMOXICILLIN], the IC50 result was “Not Active”.

`NS(=O)(=O)c1cc2c(cc1Cl)NCNS2(=O)=O` [HYDROCHLOROTHIAZIDE]: the IC50 result is “Not Active”.

As to `Oc1cccc2cccnc12` [OXYQUINOLINE], the IC50 entry is recorded as “Not Active”.

For a further experiment, the target named is Melanocortin receptor 3 (Homo sapiens, UniProt P41968). Note: in other assays of this panel Not Active means under 50% inhibition at 10 µM.
Chain of Melanocortin receptor 3 (P41968 whole entry): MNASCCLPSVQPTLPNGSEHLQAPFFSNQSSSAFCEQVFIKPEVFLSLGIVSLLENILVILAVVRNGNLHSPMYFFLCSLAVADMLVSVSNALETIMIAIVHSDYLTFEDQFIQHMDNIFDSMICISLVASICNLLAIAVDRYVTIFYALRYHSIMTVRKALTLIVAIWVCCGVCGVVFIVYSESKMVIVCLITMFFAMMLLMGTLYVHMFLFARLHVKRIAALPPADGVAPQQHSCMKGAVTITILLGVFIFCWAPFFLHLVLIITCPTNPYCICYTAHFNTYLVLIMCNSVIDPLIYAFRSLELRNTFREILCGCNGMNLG
Assay: not given
Format: cell membranes, Membrane. Conditions: hek293.
Turning to `CC1(C)S[C@@H]2[C@H](NC(=O)[C@H](N)c3ccc(O)cc3)C(=O)N2[C@H]1C(=O)O` [AMOXICILLIN], the IC50 result is listed as “Not Active”.

As to `NS(=O)(=O)c1cc2c(cc1Cl)NCNS2(=O)=O` [HYDROCHLOROTHIAZIDE], the IC50 result is “Not Active”.

In the case of `Oc1cccc2cccnc12` [OXYQUINOLINE], the IC50 result is given as “Not Active”.

The next experiment has as its target Mitogen-activated protein kinase 1 (Homo sapiens, UniProt P28482). The experiment in a line: DRUGMATRIX: Protein Serine/Threonine Kinase, ERK2 enzyme inhibition (substrate: Myelin Basic Protein). Set-up: species or system Escherichia coli. Conditions: Not Active = under 50% inhibition at 10 µM.
For `CC1(C)S[C@@H]2[C@H](NC(=O)[C@H](N)c3ccc(O)cc3)C(=O)N2[C@H]1C(=O)O` [AMOXICILLIN], the IC50 entry is “Not Active”.

Turning to `NS(=O)(=O)c1cc2c(cc1Cl)NCNS2(=O)=O` [HYDROCHLOROTHIAZIDE], the IC50 entry was “Not Active”.

On to `Oc1cccc2cccnc12` [OXYQUINOLINE], for which the IC50 entry is listed as “Not Active”.

The target in a further experiment is D(3) dopamine receptor (Homo sapiens, UniProt P35462). The experiment can be described thus: DRUGMATRIX: Dopamine D3 radioligand binding (ligand: [3H] Spiperone). The class given is cell membranes, CHO, Membrane. Conditions: cho.
Chain of D(3) dopamine receptor (P35462 whole entry): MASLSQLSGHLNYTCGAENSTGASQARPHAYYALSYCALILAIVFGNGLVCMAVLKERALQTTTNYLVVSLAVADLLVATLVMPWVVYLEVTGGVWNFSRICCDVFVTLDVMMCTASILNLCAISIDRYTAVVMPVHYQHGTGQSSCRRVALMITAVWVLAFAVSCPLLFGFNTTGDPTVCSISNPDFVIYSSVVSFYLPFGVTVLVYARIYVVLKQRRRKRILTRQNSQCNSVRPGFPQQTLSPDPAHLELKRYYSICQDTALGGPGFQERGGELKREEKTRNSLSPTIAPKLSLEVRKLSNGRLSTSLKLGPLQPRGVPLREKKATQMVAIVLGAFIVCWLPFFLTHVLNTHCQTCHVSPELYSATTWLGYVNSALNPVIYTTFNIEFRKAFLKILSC
`CC1(C)S[C@@H]2[C@H](NC(=O)[C@H](N)c3ccc(O)cc3)C(=O)N2[C@H]1C(=O)O` [AMOXICILLIN]: the IC50 entry is “Not Active”.

Turning to `NS(=O)(=O)c1cc2c(cc1Cl)NCNS2(=O)=O` [HYDROCHLOROTHIAZIDE], the IC50 entry is “Not Active”.

Consider `Oc1cccc2cccnc12` [OXYQUINOLINE], for which the IC50 entry is on record as “Not Active”.

Tested on in the next experiment: not listed separately
The experiment in a line: DRUGMATRIX: Phosphodiesterase PDE4 enzyme inhibition (substrate: [3H]cAMP + cAMP). Conditions: u-937; Not Active = under 50% inhibition at 10 µM.
For the compound `CC1(C)S[C@@H]2[C@H](NC(=O)[C@H](N)c3ccc(O)cc3)C(=O)N2[C@H]1C(=O)O` [AMOXICILLIN], the IC50 result is recorded as “Not Active” and the Ki result is listed as “Not Active”.

As to `NS(=O)(=O)c1cc2c(cc1Cl)NCNS2(=O)=O` [HYDROCHLOROTHIAZIDE], the IC50 result is reported as “Not Active” and the Ki result is “Not Active”.

As to `Oc1cccc2cccnc12` [OXYQUINOLINE], the IC50 result is given as “Not Active” and the Ki result is reported as “Not Active”.

Tested on in the next experiment: not listed separately
The experiment in a line: DRUGMATRIX: Glutamate, NMDA, Phencyclidine radioligand binding (ligand: [3H] TCP). Conditions: Not Active = under 50% inhibition at 10 µM. Format: cell membranes, Rattus norvegicus, Wistar, Cerebral cortex, Membrane.
In the case of `CC1(C)S[C@@H]2[C@H](NC(=O)[C@H](N)c3ccc(O)cc3)C(=O)N2[C@H]1C(=O)O` [AMOXICILLIN], the IC50 entry is “Not Active” and the Ki result was “Not Active”.

In the case of `NS(=O)(=O)c1cc2c(cc1Cl)NCNS2(=O)=O` [HYDROCHLOROTHIAZIDE], the IC50 entry was “Not Active” and the Ki entry is listed as “Not Active”.

In the case of `Oc1cccc2cccnc12` [OXYQUINOLINE], the IC50 entry is “Not Active” and the Ki result was “Not Active”.

Tested on in another experiment: not listed separately
The experiment in a line: DRUGMATRIX: Calcium Channel Type L, Phenylalkylamine radioligand binding (ligand: [3H] (-)-Desmethoxyverapamil (D-888)). Format: cell membranes, Rattus norvegicus, Wistar, Brain, Membrane. Conditions: Not Active = under 50% inhibition at 10 µM.
Regarding `CC1(C)S[C@@H]2[C@H](NC(=O)[C@H](N)c3ccc(O)cc3)C(=O)N2[C@H]1C(=O)O` [AMOXICILLIN], the IC50 entry was “Not Active” and the Ki entry is “Not Active”.

For the compound `NS(=O)(=O)c1cc2c(cc1Cl)NCNS2(=O)=O` [HYDROCHLOROTHIAZIDE], the IC50 result is given as “Not Active” and the Ki result is given as “Not Active”.

With `Oc1cccc2cccnc12` [OXYQUINOLINE], the IC50 result is “Not Active” and the Ki entry was “Not Active”.

The target in a further experiment is Platelet-activating factor receptor (Homo sapiens, UniProt P25105). The experiment in a line: biochemical. The conditions noted are these: platelet. Format: tissue-based. Note: in other assays of this panel Not Active means under 50% inhibition at 10 µM.
Chain of Platelet-activating factor receptor (P25105 whole entry): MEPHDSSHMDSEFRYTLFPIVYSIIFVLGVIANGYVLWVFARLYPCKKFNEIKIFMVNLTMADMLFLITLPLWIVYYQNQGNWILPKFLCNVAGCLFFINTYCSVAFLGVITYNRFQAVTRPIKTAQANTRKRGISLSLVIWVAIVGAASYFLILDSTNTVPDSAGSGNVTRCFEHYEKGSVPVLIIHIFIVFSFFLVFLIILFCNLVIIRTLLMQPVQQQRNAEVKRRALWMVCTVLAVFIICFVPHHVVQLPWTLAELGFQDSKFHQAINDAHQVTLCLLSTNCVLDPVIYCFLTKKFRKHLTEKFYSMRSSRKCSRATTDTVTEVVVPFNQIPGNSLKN
As for `CC1(C)S[C@@H]2[C@H](NC(=O)[C@H](N)c3ccc(O)cc3)C(=O)N2[C@H]1C(=O)O` [AMOXICILLIN], the IC50 result was “Not Active”.

In the case of `NS(=O)(=O)c1cc2c(cc1Cl)NCNS2(=O)=O` [HYDROCHLOROTHIAZIDE], the IC50 result is on record as “Not Active”.

In the case of `Oc1cccc2cccnc12` [OXYQUINOLINE], the IC50 entry is given as “Not Active”.

A further experiment has as its target T2, Alpha-1D adrenergic receptor (Homo sapiens, UniProt P25100). Note: in other assays of this panel Not Active means under 50% inhibition at 10 µM.
T2 sequence (P25100 whole entry): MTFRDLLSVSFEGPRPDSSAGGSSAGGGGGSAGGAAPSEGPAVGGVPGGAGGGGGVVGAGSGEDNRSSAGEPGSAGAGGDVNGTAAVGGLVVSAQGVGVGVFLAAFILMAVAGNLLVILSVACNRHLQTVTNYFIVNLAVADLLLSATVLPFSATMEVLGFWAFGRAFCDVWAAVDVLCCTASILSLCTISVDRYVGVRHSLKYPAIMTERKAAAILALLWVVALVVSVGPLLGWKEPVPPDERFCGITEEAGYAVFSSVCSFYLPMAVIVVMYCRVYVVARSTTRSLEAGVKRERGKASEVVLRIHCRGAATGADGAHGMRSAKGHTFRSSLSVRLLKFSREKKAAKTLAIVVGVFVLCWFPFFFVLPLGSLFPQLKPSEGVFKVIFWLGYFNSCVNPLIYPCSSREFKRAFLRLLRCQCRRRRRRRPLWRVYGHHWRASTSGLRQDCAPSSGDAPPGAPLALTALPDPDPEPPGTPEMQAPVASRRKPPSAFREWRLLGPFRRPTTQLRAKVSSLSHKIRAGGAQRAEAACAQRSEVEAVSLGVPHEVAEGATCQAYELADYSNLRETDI
Assay: not given
Format: cell membranes, HEK293, Membrane. The conditions noted are these: hek293.
Turning to `CC1(C)S[C@@H]2[C@H](NC(=O)[C@H](N)c3ccc(O)cc3)C(=O)N2[C@H]1C(=O)O` [AMOXICILLIN], the IC50 result was “Not Active”.

Consider `NS(=O)(=O)c1cc2c(cc1Cl)NCNS2(=O)=O` [HYDROCHLOROTHIAZIDE], for which the IC50 entry is listed as “Not Active”.

Take `Oc1cccc2cccnc12` [OXYQUINOLINE]: the IC50 result is recorded as “Not Active”.

A further experiment addresses Prostaglandin G/H synthase 1 (Homo sapiens, UniProt P23219). The experiment in a line: biochemical. Format: tissue-based, Platelet. Conditions: platelet.
For `CC1(C)S[C@@H]2[C@H](NC(=O)[C@H](N)c3ccc(O)cc3)C(=O)N2[C@H]1C(=O)O` [AMOXICILLIN], the IC50 entry is “Not Active”.

As to `NS(=O)(=O)c1cc2c(cc1Cl)NCNS2(=O)=O` [HYDROCHLOROTHIAZIDE], the IC50 result is recorded as “Not Active”.

With `Oc1cccc2cccnc12` [OXYQUINOLINE], the IC50 entry is on record as “Not Active”.

Tested on in the next experiment: not listed separately
The experiment can be described thus: DRUGMATRIX: Glutamate, NMDA, Agonism radioligand binding (ligand: [3H] CGP-39653). The conditions noted are these: Not Active = under 50% inhibition at 10 µM. Format: cell membranes, Rattus norvegicus, Wistar, Cerebral cortex, Membrane.
For `CC1(C)S[C@@H]2[C@H](NC(=O)[C@H](N)c3ccc(O)cc3)C(=O)N2[C@H]1C(=O)O` [AMOXICILLIN], the IC50 entry is “Not Active” and the Ki result was “Not Active”.

`NS(=O)(=O)c1cc2c(cc1Cl)NCNS2(=O)=O` [HYDROCHLOROTHIAZIDE]: the IC50 entry is listed as “Not Active” and the Ki result is listed as “Not Active”.

As for `Oc1cccc2cccnc12` [OXYQUINOLINE], the IC50 entry is “Not Active” and the Ki result is recorded as “Not Active”.

A further experiment concerns the target T3, Interstitial collagenase (Homo sapiens, UniProt P03956).
T3 sequence (P03956 whole entry): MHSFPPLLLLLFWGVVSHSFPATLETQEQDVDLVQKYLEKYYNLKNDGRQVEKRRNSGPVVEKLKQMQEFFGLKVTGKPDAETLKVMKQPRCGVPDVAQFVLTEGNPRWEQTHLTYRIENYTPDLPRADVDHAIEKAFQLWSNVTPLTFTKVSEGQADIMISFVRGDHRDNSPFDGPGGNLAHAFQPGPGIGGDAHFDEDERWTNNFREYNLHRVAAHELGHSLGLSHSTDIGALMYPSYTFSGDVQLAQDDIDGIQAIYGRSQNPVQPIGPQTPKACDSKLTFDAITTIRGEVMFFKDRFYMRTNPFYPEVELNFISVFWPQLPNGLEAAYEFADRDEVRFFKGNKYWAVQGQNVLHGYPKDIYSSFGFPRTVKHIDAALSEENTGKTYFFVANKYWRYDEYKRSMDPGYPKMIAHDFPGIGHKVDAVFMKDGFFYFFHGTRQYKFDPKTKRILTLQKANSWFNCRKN
Assay: not given
Format: tissue-based, Rheumatoid synovial fibroblasts.
Details: not given
On to `CC1(C)S[C@@H]2[C@H](NC(=O)[C@H](N)c3ccc(O)cc3)C(=O)N2[C@H]1C(=O)O` [AMOXICILLIN], for which the IC50 entry is listed as “Not Active”.

Take `NS(=O)(=O)c1cc2c(cc1Cl)NCNS2(=O)=O` [HYDROCHLOROTHIAZIDE]: the IC50 entry is listed as “Not Active”.

Take `Oc1cccc2cccnc12` [OXYQUINOLINE]: the IC50 result is listed as “Not Active”.

The next experiment addresses T4, 3-hydroxy-3-methylglutaryl-coenzyme A reductase (Homo sapiens, UniProt P04035).
T4 sequence (P04035 whole entry): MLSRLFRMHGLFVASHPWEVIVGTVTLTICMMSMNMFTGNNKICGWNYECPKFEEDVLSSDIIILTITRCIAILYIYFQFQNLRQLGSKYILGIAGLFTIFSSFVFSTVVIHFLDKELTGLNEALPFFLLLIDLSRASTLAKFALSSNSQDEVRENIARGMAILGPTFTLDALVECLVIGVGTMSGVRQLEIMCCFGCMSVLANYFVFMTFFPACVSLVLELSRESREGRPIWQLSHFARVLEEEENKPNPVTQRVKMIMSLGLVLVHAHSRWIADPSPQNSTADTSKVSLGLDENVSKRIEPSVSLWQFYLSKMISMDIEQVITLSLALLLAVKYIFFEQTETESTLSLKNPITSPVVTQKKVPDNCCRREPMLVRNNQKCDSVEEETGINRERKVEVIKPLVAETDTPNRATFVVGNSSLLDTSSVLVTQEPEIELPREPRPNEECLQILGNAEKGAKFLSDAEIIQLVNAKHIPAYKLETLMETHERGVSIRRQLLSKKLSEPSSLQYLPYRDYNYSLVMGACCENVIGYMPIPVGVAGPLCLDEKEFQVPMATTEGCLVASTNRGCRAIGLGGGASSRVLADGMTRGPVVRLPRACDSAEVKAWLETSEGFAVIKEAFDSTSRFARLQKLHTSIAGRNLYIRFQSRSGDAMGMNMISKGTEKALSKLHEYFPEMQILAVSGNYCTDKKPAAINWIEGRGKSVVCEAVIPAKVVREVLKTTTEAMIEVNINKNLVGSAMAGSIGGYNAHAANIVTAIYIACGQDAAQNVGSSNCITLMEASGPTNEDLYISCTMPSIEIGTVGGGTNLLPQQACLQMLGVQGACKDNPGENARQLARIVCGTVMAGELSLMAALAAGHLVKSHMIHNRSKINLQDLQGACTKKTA
Assay: not given
Details: not given
On the set-up: species or system Escherichia coli.
Take `CC1(C)S[C@@H]2[C@H](NC(=O)[C@H](N)c3ccc(O)cc3)C(=O)N2[C@H]1C(=O)O` [AMOXICILLIN]: the IC50 entry was “Not Active”.

For the compound `NS(=O)(=O)c1cc2c(cc1Cl)NCNS2(=O)=O` [HYDROCHLOROTHIAZIDE], the IC50 result is given as “Not Active”.

Consider `Oc1cccc2cccnc12` [OXYQUINOLINE], for which the IC50 entry is given as “Not Active”.
